How the values were obtained:
[1] = test system: C2C12+EA-NLS/NRS+GR-PL cells; experiment: EFC mitotic index assay, C2C12+EA-NLS/NRS+GR-PL cells (Stanford GR cells); format: cell-based, mouse; conditions: 24 hours, 30 min read
Method: (§1) In all experiments described, 20,000 cells/well were plated in a 96 well Corning clear bottom white plate in a total volume of 100 μL. The cells were treated for 24 hours with 5 μL of either the appropriate vehicle control or varying concentrations of the six compounds listed above. The next day, 100 μL of Tropix/ABI Gal screen cell lysis buffer/substrate mixture (24:1 ratio of component) was added to the cells/media and the plate was read on the Victor II luminescent plate reader at 30, 60 and 120 minutes after the lysis/substrate addition.
(§2) The initial test of the cell cycle arresting compounds was performed on a double stable cell line having both of the constructs expressing the EA-NLS/NRS and GR-PL. (PL is β-galactosidase enzyme donor fragment and EA is the enzyme acceptor fragment available from DiscoveRx, Fremont, CA.). The parental line, C2C12 is derived from mouse muscle cells. In the experiments in which EA-NLS/NRS and GR-PL are expressed in the C2C12 parental cell line, the constructs were generated by subcloning the human GR sequence into a MFG-based retroviral vector that had been molecularly altered in a lab at Stanford. An MFG vector is described in U.S. Pat. No. 6,544,771. The EA-NLS/NRS fragment was subcloned into a wzl-based retroviral vector again molecularly altered in a lab at Stanford. In the experiments performed using a CHO-K1 parental cell line background the EA-NLS/NRS was subcloned into the Kpn I and Xba I sites of pcDNA3.1 Hygro vector from Invitrogen (catalog #V870-20). The plasmid was introduced into the cells via FuGene6 (Roche) transfection reagent. Cells were selected in the presence of 250 μg/mL of Hygromycin and single cell clones isolated that expressed the EA-NLS/NRS. The human GR gene was cloned by PCR and subcloned into the Xho I and Bam HI sites of the DiscoveRx vector-pCMV-myc-PL (C3). The plasmid was introduced into the selected EA-NLS/NRS expressing clone isolated above by FuGene 6 transfection. Another round of screening in the presence of 300-500 μg/mL of G418 was used to select GR-PL transfected clones. Clonal selection was performed to finally identify the clone that was used in these studies. In the studies using the CHO-K1+cyto-EA and cJUN-PL, the same Invitrogen pcDNA3.1 Hygro vector was used to express EA. In this case, the EA fragment was subcloned into the Kpn I/Not I sites of pcDNA3.1 Hygro. The plasmid DNA was introduced as described above using FuGene6 reagent. Cells were selected in the presence of 250 μg/mL of hygromycin and clonal selection was performed. The c-Jun gene was generated by PCR using an existing template copy of the gene and then subcloned into the Xho I/Bam HI sites of pCMV-PL-myc (C3).

[2] = test system: CHO-K1+EA-NLS/NRS+GR-PL cells; experiment: EFC mitotic index assay, CHO-K1+EA-NLS/NRS+GR-PL cells, antibiotic selected pool (DX M19/GR pool); format: cell-based; conditions: for Avg luminescence readout / R1 luminescence readout / R3 luminescence readout / Ratio (Avg vs 0 conc): 24 hours, 30 min read
Method: as §1, §2
In the next experiment, an antibiotic selected pool population of CHO-K1 cells that express EA-NLS/NRS and GR-PL were tested with the same six set of cell cycle blocking compounds. […] FIGS. 2a and 2b show the immunofluorescence localization of EA and GR-PL in that the blue DAPI nuclear staining can be seen to be concentrated in the nucleus, while the green fluorescein stain on the antibody (from Abcam PLC) to the glucocorticoid receptor is seen in the cytoplasm. […] Again, six tables are presented one for each of the six drugs tested.
This only occurs with compounds that block the cells in mitosis, allowing EA and ProLabel to complement.

[3] = test system: CHO-K1+cyto-EA cells transfected with cJUN-PL; experiment: EFC mitotic index assay, CHO-K1+cyto-EA cells transiently transfected with cJUN-PL; format: cell-based; conditions: for Avg luminescence readout / R1 luminescence readout / R3 luminescence readout / Ratio (Avg vs 0 conc): overnight
Method: as §2
To further test the concept of sequestering of one β-galactosidase enzyme fragment in the nucleus (in this case PL) while localizing the other component in the cytoplasm (in this case EA) the following experiment was carried out. […] The cyto-EA cells were transiently transfected with cJUN-PL plasmid DNA. Two days after the transfection, the cells were re-plated into a 96 well Corning white clear bottom multiwell plate at 20,000 cells/well. The cells were allowed to adhere overnight and the next day were treated with titrating concentrations of the six different cell cycle blocking compounds. The incubation was carried out overnight. The next day the media was removed from the cells and 100 μL of Tropix/ABI Gal screen cell lysis/substrate reagent was added to the cells.

Q: How did the Avg luminescence readout ([1]; 0.03 μM) turn out when CC(=O)O[C@H]1C(=O)[C@@]2(C)[C@H]([C@H](OC(=O)c3ccccc3)[C@]3(O)C[C@H](OC(=O)[C@H](O)[C@@H](NC(=O)c4ccccc4)c4ccccc4)C(C)=C1C3(C)C)[C@]1(OC(C)=O)CO[C@@H]1C[C@@H]2O [Taxol, paclitaxel] was run?
A: 3094

Q: And the R1 luminescence readout ([1]; 0.03 μM)?
A: 2624

Q: What about the R3 luminescence readout ([1]; 0.03 μM) of the same compound?
A: 3543

Q: And the “Ratio (Avg vs 0 conc)” value ([1]; 0.03 μM)?
A: 1

Q: What about the Avg luminescence readout ([1]; 0.1 μM) of the same compound?
A: 3684

Q: What about the R1 luminescence readout ([1]; 0.1 μM) of the same compound?
A: 2602

Q: And the R3 luminescence readout ([1]; 0.1 μM)?
A: 4340

Q: What about the “Ratio (Avg vs 0 conc)” value ([1]; 0.1 μM) of the same compound?
A: 1

Q: What about the Avg luminescence readout ([1]; 0.3 μM) of the same compound?
A: 3213

Q: What about the R1 luminescence readout ([1]; 0.3 μM) of the same compound?
A: 2638

Q: What about the R3 luminescence readout ([1]; 0.3 μM) of the same compound?
A: 3639

Q: What about the “Ratio (Avg vs 0 conc)” value ([1]; 0.3 μM) of the same compound?
A: 1

Q: And the Avg luminescence readout ([1]; 1 μM)?
A: 3692

Q: And the R1 luminescence readout ([1]; 1 μM)?
A: 3016

Q: And the R3 luminescence readout ([1]; 1 μM)?
A: 4104

Q: And the “Ratio (Avg vs 0 conc)” value ([1]; 1 μM)?
A: 1

Q: What about the Avg luminescence readout ([2]; 0.03 μM) of the same compound?
A: 7167

Q: What about the R1 luminescence readout ([2]; 0.03 μM) of the same compound?
A: 7314

Q: What about the R3 luminescence readout ([2]; 0.03 μM) of the same compound?
A: 6605

Q: What about the “Ratio (Avg vs 0 conc)” value ([2]; 0.03 μM) of the same compound?
A: 1

Q: And the Avg luminescence readout ([2]; 0.1 μM)?
A: 9961

Q: What about the R1 luminescence readout ([2]; 0.1 μM) of the same compound?
A: 10680

Q: What about the R3 luminescence readout ([2]; 0.1 μM) of the same compound?
A: 9258

Q: And the “Ratio (Avg vs 0 conc)” value ([2]; 0.1 μM)?
A: 2

Q: And the Avg luminescence readout ([2]; 0.3 μM)?
A: 9506

Q: What about the R1 luminescence readout ([2]; 0.3 μM) of the same compound?
A: 11709

Q: What about the R3 luminescence readout ([2]; 0.3 μM) of the same compound?
A: 7904

Q: What about the “Ratio (Avg vs 0 conc)” value ([2]; 0.3 μM) of the same compound?
A: 1

Q: And the Avg luminescence readout ([2]; 1 μM)?
A: 15972

Q: And the R1 luminescence readout ([2]; 1 μM)?
A: 17111

Q: And the R3 luminescence readout ([2]; 1 μM)?
A: 14344

Q: What about the “Ratio (Avg vs 0 conc)” value ([2]; 1 μM) of the same compound?
A: 2

Q: Which Avg luminescence readout ([1]; 1.0 μg/mL) does the source give for NC(=O)NO [Hydroxyurea] here?
A: 11689

Q: And the R1 luminescence readout ([1]; 1.0 μg/mL)?
A: 12080

Q: And the R3 luminescence readout ([1]; 1.0 μg/mL)?
A: 11424

Q: What about the “Ratio (Avg vs 0 conc)” value ([1]; 1.0 μg/mL) of the same compound?
A: 1

Q: What about the Avg luminescence readout ([1]; 3.3 μg/mL) of the same compound?
A: 11522

Q: And the R1 luminescence readout ([1]; 3.3 μg/mL)?
A: 12588

Q: And the R3 luminescence readout ([1]; 3.3 μg/mL)?
A: 11171

Q: What about the “Ratio (Avg vs 0 conc)” value ([1]; 3.3 μg/mL) of the same compound?
A: 1

Q: And the Avg luminescence readout ([1]; 10.0 μg/mL)?
A: 9211

Q: What about the R1 luminescence readout ([1]; 10.0 μg/mL) of the same compound?
A: 8813

Q: What about the R3 luminescence readout ([1]; 10.0 μg/mL) of the same compound?
A: 9419

Q: And the “Ratio (Avg vs 0 conc)” value ([1]; 10.0 μg/mL)?
A: 1

Q: And the Avg luminescence readout ([1]; 30.0 μg/mL)?
A: 7221

Q: What about the R1 luminescence readout ([1]; 30.0 μg/mL) of the same compound?
A: 7272

Q: What about the R3 luminescence readout ([1]; 30.0 μg/mL) of the same compound?
A: 7165

Q: And the “Ratio (Avg vs 0 conc)” value ([1]; 30.0 μg/mL)?
A: 1

Q: And the Avg luminescence readout ([2]; 1.0 μg/mL)?
A: 4562

Q: And the R1 luminescence readout ([2]; 1.0 μg/mL)?
A: 4403

Q: What about the R3 luminescence readout ([2]; 1.0 μg/mL) of the same compound?
A: 4740

Q: And the “Ratio (Avg vs 0 conc)” value ([2]; 1.0 μg/mL)?
A: 1

Q: And the Avg luminescence readout ([2]; 3.3 μg/mL)?
A: 4389

Q: What about the R1 luminescence readout ([2]; 3.3 μg/mL) of the same compound?
A: 4423

Q: And the R3 luminescence readout ([2]; 3.3 μg/mL)?
A: 4304

Q: And the “Ratio (Avg vs 0 conc)” value ([2]; 3.3 μg/mL)?
A: 1

Q: What about the Avg luminescence readout ([2]; 10.0 μg/mL) of the same compound?
A: 3959

Q: And the R1 luminescence readout ([2]; 10.0 μg/mL)?
A: 3865

Q: What about the R3 luminescence readout ([2]; 10.0 μg/mL) of the same compound?
A: 3897

Q: What about the “Ratio (Avg vs 0 conc)” value ([2]; 10.0 μg/mL) of the same compound?
A: 1

Q: What about the Avg luminescence readout ([2]; 30.0 μg/mL) of the same compound?
A: 3793

Q: What about the R1 luminescence readout ([2]; 30.0 μg/mL) of the same compound?
A: 3825

Q: What about the R3 luminescence readout ([2]; 30.0 μg/mL) of the same compound?
A: 3785

Q: And the “Ratio (Avg vs 0 conc)” value ([2]; 30.0 μg/mL)?
A: 1

Q: And the “increase in EFC activity (in words)” value ([2]; overnight treatment)?
A: did not cause an increase in EFC activity

Q: And the Avg luminescence readout ([3]; 3.0 μg/mL)?
A: 7420

Q: What about the R1 luminescence readout ([3]; 3.0 μg/mL) of the same compound?
A: 7319

Q: And the R3 luminescence readout ([3]; 3.0 μg/mL)?
A: 6690

Q: And the “Ratio (Avg vs 0 conc)” value ([3]; 3.0 μg/mL)?
A: 1.2

Q: And the Avg luminescence readout ([3]; 10.0 μg/mL)?
A: 7634

Q: What about the R1 luminescence readout ([3]; 10.0 μg/mL) of the same compound?
A: 8237

Q: And the R3 luminescence readout ([3]; 10.0 μg/mL)?
A: 6699

Q: And the “Ratio (Avg vs 0 conc)” value ([3]; 10.0 μg/mL)?
A: 1.3

Q: And the Avg luminescence readout ([3]; 30.0 μg/mL)?
A: 6984

Q: And the R1 luminescence readout ([3]; 30.0 μg/mL)?
A: 7217

Q: What about the R3 luminescence readout ([3]; 30.0 μg/mL) of the same compound?
A: 6624

Q: And the “Ratio (Avg vs 0 conc)” value ([3]; 30.0 μg/mL)?
A: 1.2

Q: What about the Avg luminescence readout ([3]; 100.0 μg/mL) of the same compound?
A: 7742

Q: What about the R1 luminescence readout ([3]; 100.0 μg/mL) of the same compound?
A: 7955

Q: What about the R3 luminescence readout ([3]; 100.0 μg/mL) of the same compound?
A: 7483

Q: And the “Ratio (Avg vs 0 conc)” value ([3]; 100.0 μg/mL)?
A: 1.3

Q: And the “increase in EFC activity (in words)” value ([3]; overnight incubation)?
A: negligible increase in EFC activity
